Laboratory results taken from US20180312542A1, “ENDOSOMAL ESCAPE PEPTIDES” (priority 2015, published 2018).

Legend:
BSR.LNL.tdTomato cells [1] = experiment: Primary screen for cytosolic delivery of Cre recombinase (tdTomato, fluorescence image analysis); format: cell-based, hamster; details: for cells expressing tdTomato (recombined cells): 250 nM protein, 4 h serum-free media, then 48 h, sortase-conjugated peptide or no peptide; for level of recombination in primary screen: 250 nM peptide-(+36 GFP)-Cre conjugate
Protocol: FIG. 2. Primary screen for cytosolic delivery of Cre recombinase in BSR.LNL.tdTomato cells. Initial screen of 20 peptide-(+36 GFP)-Cre conjugated proteins. Cytosolic Cre delivery results in recombination and tdTomato expression. The percentage of tdTomato positive cells was determined by fluorescence image analysis. […] Cells were treated with 250 nM protein for 4 hours in serum-free DMEM. Cells were washed and supplanted with full DMEM and incubated for 48 hours. Error bars represent the standard deviation of three independent biological replicates.
The ability of each peptide-(+36 GFP)-Cre recombinase fusion when added to culture media to effect recombination was assayed in BSR.LNL.tdTomato cells, a hamster kidney cell line derived from BHK-21 (FIG. 8). Because Cre recombinase must enter the cell, escape endosomes, enter the nucleus, and catalyze recombination to generate tdTomato fluorescence, this assay reflects the availability of active, non-endosomal recombinase enzyme that reaches the nucleus. […] See, e.g., Dijkstra at al. Biochimica et Biophysica Acta (BBA)-Molecular Cell Research 1984, 804, 58.
The reporter BSR.LNL.tdTomato cells were incubated with 250 nM of each peptide-(+36 GFP)-Cre protein in serum-free media.
BSR.LNL.tdTomato cells were plated at 10,000 cells per well in black 384-well plates (Aurora Biotechnologies). Cells were treated with Cre fusion proteins diluted in serum-free DMEM 24 hours after plating and incubated for 4 hours at 37° C. Following incubation, the cells were washed three times with PBS+20 U/mL heparin. The cells were incubated a further 48 h in serum-containing media. Cells were fixed in 3% paraformaldehyde and stained with Hoescht 33342 nuclear dye. Images were acquired on an ImageXpress Micro automated microscope (Molecular Devices) using a 4× objective (binning 2, gain 2), with laser- and image-based focusing (offset −130 μm, range ±50 μm, step 25 μm). Images were exposed for 10 ms in the DAPI channel (Hoechst) and 500 ms in the dsRed channel (tdTomato). Image analysis was performed using the cell-scoring module of MetaXpress software (Molecular Devices). All nuclei were detected with a minimum width of 1 pixel, maximum width of 3 pixels, and an intensity of 200 gray levels above background. Positive cells were evaluated for uniform signal in the dsRed channel (minimum width of 5 pixels, maximum width of 30 pixels, intensity >200 gray levels above background, 10 μm minimum stained area). In total, nine images were captured and analyzed per well, and 16 wells were treated with the same fusion protein. The primary screen was completed in biological triplicate.

BSR.LNL.tdTomato cells [2] = experiment: ATP-dependent cell viability assay (CellTiterGlo) 48 h after treatment; format: cell-based, hamster; details: for viable cells: 1 μM treatment; for viability: 250 nM recombinant fusion
Protocol: FIGS. 3A-3B. Efficacy and toxicity of recombinant expression fusions of aurein 1.2 (“E”) and citropin 1.3 (“U”). (FIG. 3A) Cytosolic Cre delivery results in recombination and tdTomato expression. The percentage of tdTomato positive cells was determined by flow cytometry. Protein fusions were delivered at 125 nM, 250 nM, 500 nM, and 1 μM. (FIG. 3B) Toxicity of aurein 1.2 and citropin 1.3 as determined by CellTiterGlo (Promega) assay. Protein fusions were delivered at 125 nM, 250 nM, 500 nM, and 1 μM. […] Cells were treated with 250 nM protein for 4 hours in serum-free media. Cells were washed and supplanted with full DMEM and incubated for 48 hours. Error bars represent the standard deviation of three independent biological replicates.
Next, the toxicity of each fusion protein was evaluated at a range of concentrations (125 nM to 1 μM) using an ATP-dependent cell viability assay at 48 h after treatment. […] Applying 1 μM treatments decreased cell viability to 70% and 66%, respectively (FIG. 3B). In light of its activity and low cytotoxicity at 250 nM, the ability of aurein 1.2 to enhance cytosolic protein delivery was characterized in depth.
(§1) Uptake and delivery assays for Cre fusion proteins were performed as previously described. Briefly, proteins were diluted in serum-free DMEM and incubated on the cells in 48-well plates for 4 hours at 37° C. Following incubation, the cells were washed three times with PBS+20 U/mL heparin. The cells were incubated a further 48 hours in serum-containing media prior to trypsinization and analysis by flow cytometry. All flow cytometry were carried out on a BD Fortessa flow cytometer (Becton-Dickinson) using 530/30 nm and 610/20 nm filter sets. Toxicity for aurein 1.2 and citropin 1.3 validation assays was determined using CellTiterGlo assay (Promega) in 96-well plates following manufacturer protocol. Toxicity for alanine scan mutational analysis was determined with LIVE/DEAD fixable far-red dead cell stain (Life Technologies) with 635 nm laser and 670/30 nm filter.

[3] = system: cochlear hair cells and supporting cells of Cre reporter transgenic mice; experiment: In vivo protein delivery of Cre recombinase into mouse neonatal cochleas; details: for cochlear cells survived as compared to +36 GFP-Cre treatment: scala media
Protocol: FIGS. 6A-6C. In vivo protein delivery of Cre recombinase into mouse neonatal cochleas. 0.4 μL of 50 μM+36 GFP-Cre or aurein 1.2-+36 GFP-Cre were injected into the scala media. (FIG. 6A) Five days after injection, cochlea were harvested. Inner hair cells (IHC), outer hair cells (OHC) and supporting cells in the sensory epithelium (SE) were imaged for the presence of tdTomato, which is only expressed following Cre-mediated recombination. Hair cells were labeled with antibodies against the hair-cell marker Myo7a. (FIG. 6B) To evaluate cytotoxicity, the number of outer hair cells and inner hair cells were measured by counting DAPI-stained cells. (FIG. 6C) The percentage of tdTomato positive cells, reflecting successful delivery of functional Cre recombinase, was determined by fluorescence imaging.
To evaluate the ability of aurein 1.2 to increase the efficacy of cationic protein delivery in vivo, proteins were delivered to the inner ear of Cre reporter transgenic mice that express tdTomato upon Cre-mediated recombination. This animal model was chosen due to its confined injection volume, the presence of well-characterized cell types, and the existence of genetic deafness models that would facilitate future studies of protein delivery to treat hearing loss.
Anesthetized postnatal day 2 (P2) mice were injected with 0.4 μL of 50 μM+36 GFP-Cre or aurein 1.2-+36 GFP-Cre solutions in the scala media to access the cochlear cells. Five days after injection, the cochleas were harvested for immunolabeling of inner ear cell markers and imaging for tdTomato florescence (FIG. 6A). Both the hair cells (Myo7a+) and supporting cells (Myo7a−) were evaluated for td Tomato signal. The total number of hair cells and supporting cells (by DAPI labeling) in the sensory epithelium (SE) was used to determine the relative toxicity of aurein 1.2-+36 GFP-Cre to the baseline treatment of +36 GFP-Cre ([…]).
P1-2 Gt(ROSA)26Sor^tm14(CAG-tdTomato)Hze mice were used for aurein 1.2-+36-GFP-Cre and +36-GFP-Cre injection. The Rosa26-tdTomato mice were from the Jackson Laboratory. Animals were used under protocols approved by the Massachusetts Eye & Ear Infirmary IACUC committee. Mice were anesthetized by hypothermia on ice. Cochleostomies were performed by making an incision behind the ear to expose the cochlea. Glass micropipettes held by a micromanipulator were used to deliver the complex into the scala media, which allows access to inner ear hair cells. The total delivery volume for every injection was 0.4 μL per cochlea and the release was controlled by a micromanipulator at the speed of 69 nL/min.
5 days after injection, the mice were sacrificed and cochlea were harvested by standard protocols. See, e.g., Sage et al. Science 2005, 307, 1114. For immunohistochemistry, antibodies against hair-cell markers (Myo7a) and supporting cells (Sox2) were used following a previously described protocol. To quantify the number of tdTomato positive cells after aurein 1.2-+36-GFP-Cre and +36-GFP-Cre, we counted the total number of inner and outer hair cells in a region spanning 100 μm in the apex, middle, and base turn of the cochlea.

BSR.LNL.tdTomato cells [4] = experiment: Toxicity of aurein 1.2 variants fused to +36 GFP-Cre; format: cell-based, hamster; details: variant fused to +36 GFP-Cre, 250 nM
Protocol: (§2) FIGS. 4A-4B. Activity and cytotoxicity of aurein 1.2 variants fused to +36 GFP-Cre. (FIG. 4A) The percentage of tdTomato positive cells was determined by flow cytometry. (FIG. 4B) Toxicity as determined by CellTiterGlo (Promega) assay. […] Cells were treated with 250 nM protein for 4 hours in serum-free DMEM. Cells were washed and supplanted with full DMEM and incubated for 48 hours.
To identify the residues involved in enhancing non-endosomal protein delivery, an alanine scan of the 13 amino acid positions of aurein 1.2 was performed by cloning, expressing, and purifying each alanine mutant of aurein 1.2-+36 GFP-Cre. The resulting fusion proteins were assayed in BSR.LNL.tdTomato reporter cells as described above (Table 2). Seven positions were moderately to highly intolerant of alanine substitution. Six positions retained >70% of the activity of unmutated aurein 1.2-+36 GFP-Cre (FIG. 4A). […]
Uptake and delivery assays for Cre fusion proteins were performed as previously described. […] Toxicity for aurein 1.2 and citropin 1.3 validation assays was determined using CellTiterGlo assay (Promega) in 96-well plates following manufacturer protocol. Toxicity for alanine scan mutational analysis was determined with LIVE/DEAD fixable far-red dead cell stain (Life Technologies) with 635 nm laser and 670/30 nm filter.

BSR.LNL.tdTomato cells [5] = experiment: Cre delivery assay of expressed fusion proteins (tdTomato, flow cytometry); format: cell-based, hamster; details: for overall recombination efficiency versus aurein 1.2: variant fused to +36 GFP-Cre, 250 nM; for recombination signal above that of +36 GFP-Cre: 250 nM expressed fusion protein; for recombination levels higher than that of +36 GFP-Cre alone: 1 μM expressed fusion protein
Protocol: FIGS. 3A-3B. Efficacy and toxicity of recombinant expression fusions of aurein 1.2 (“E”) and citropin 1.3 (“U”). […] The percentage of tdTomato positive cells was determined by flow cytometry. Protein fusions were delivered at 125 nM, 250 nM, 500 nM, and 1 μM. (FIG. 3B) Toxicity of aurein 1.2 and citropin 1.3 as determined by CellTiterGlo (Promega) assay. Protein fusions were delivered at 125 nM, 250 nM, 500 nM, and 1 μM. […] Cells were treated with 250 nM protein for 4 hours in serum-free media. Cells were washed and supplanted with full DMEM and incubated for 48 hours. Error bars represent the standard deviation of three independent biological replicates.
as §2
Both aurein 1.2-+36 GFP-Cre and citropin 1.3-+36 GFP-Cre were cloned, expressed, and purified as fusion proteins.
To identify the residues involved in enhancing non-endosomal protein delivery, an alanine scan of the 13 amino acid positions of aurein 1.2 was performed by cloning, expressing, and purifying each alanine mutant of aurein 1.2-+36 GFP-Cre. The resulting fusion proteins were assayed in BSR.LNL.tdTomato reporter cells as described above (Table 2). […] In total, 19 mutants of aurein 1.2 were generated and tested using the Cre recombination assay.
as §1

BSR.LNL.tdTomato cells [6] = experiment: Delivery efficiency of aurein 1.2 in trans with +36 GFP-Cre (Cre recombination, flow cytometry); format: cell-based, hamster; details: 125-500 nM +36 GFP-Cre mixed with aurein 1.2 (1-100 μM) or aurein 1.2-+36 GFP (125-500 nM)
Protocol: Determining the delivery efficiency of aurein 1.2 in trans with +36 GFP-Cre. 125 nM, 250 nM, or 500 nM+36 GFP-Cre was mixed with either aurein 1.2-+36 GFP (125 nM, 250 nM, 500 nM) or with aurein 1.2 (1 μM, 10 μM, 100 μM), then assayed for Cre-mediated recombination as measured by tdTomato signal during flow cytometry. […] The expressed fusion aurein 1.2-+36 GFP-Cre protein at 125 nM, 250 nM, or 500 nM was used as the positive control.
To test this possibility, we assayed functional Cre recombinase delivery of +36 GFP-Cre mixed with aurein 1.2, or mixed with aurein 1.2-+36 GFP fusion protein lacking Cre at various concentrations (FIG. 9).

[7] = middle, 0.4 μL of 50 μM, 5 days

## CCN(CC)CCCC(C)Nc1ccnc2cc(Cl)ccc12 (stereo not shown) [chloroquine, reference compound]
BSR.LNL.tdTomato cells [1]; 250 nM +36 GFP-Cre incubated with 100 μM chloroquine (positive control)
  recombined cells: 48%

## +36 GFP-Cre: superpositively charged GFP fused to Cre recombinase, SEQ ID NO: 76; no-peptide control [reference compound]
BSR.LNL.tdTomato cells [2]
  viable cells: 85%
[3]; 0.4 μL of 50 μM, 5 days
  recombination in middle or base cochlear hair cells or cochlear supporting cells: not in the middle or base of the cochlear hair cells or any cochlear supporting cells
[3]; apex, 0.4 μL of 50 μM, 5 days
  Cre-mediated recombination, inner hair cells (IHC): 4.4%
BSR.LNL.tdTomato cells [1]
  cells expressing tdTomato (recombined cells): 4.5%

## GLFDIIKKIAEAF [S12A, aurein 1.2 variant, expressed as recombinant fusion protein with +36 GFP-Cre]
BSR.LNL.tdTomato cells [4]
  toxicity versus aurein 1.2: increased toxicity
BSR.LNL.tdTomato cells [5]
  overall recombination efficiency versus aurein 1.2: potentially improved

## GLFDIIKKIAESF [aurein 1.2]
[3]; live mice, inner ear
  potency of Cre delivery into cochlear hair cells when fused with aurein 1.2 versus absence of the peptide: > 20 fold
BSR.LNL.tdTomato cells [6]
  effect on functional delivery of +36 GFP-Cre when added in trans: did not affect
BSR.LNL.tdTomato cells [1]
  level of recombination in primary screen: highest level of recombination

## GLFDIIKKVASVIGGL [citropin 1.3]
BSR.LNL.tdTomato cells [1]
  level of recombination in primary screen: moderate level of recombination

## GLFDIIKRIAESF [K8R, aurein 1.2 variant, expressed as recombinant fusion protein with +36 GFP-Cre]
BSR.LNL.tdTomato cells [4]
  toxicity versus aurein 1.2: increased toxicity
BSR.LNL.tdTomato cells [5]
  overall recombination efficiency versus aurein 1.2: potentially improved

## aurein 1.2-+36 GFP-Cre: fusion protein of aurein 1.2, +36 GFP and Cre recombinase, SEQ ID NO: 77
BSR.LNL.tdTomato cells [2]
  viability: 87%
  viable cells: 70%
[3]; apex, 0.4 μL of 50 μM, 5 days
  Cre-mediated recombination, inner hair cells (IHC): 100%
  Cre-mediated recombination, outer hair cells (OHC): 96%
  cochlear cells survived as compared to +36 GFP-Cre treatment: 96%
[3]; base, 0.4 μL of 50 μM, 5 days
  Cre-mediated recombination, inner hair cells (IHC): 70%
  Cre-mediated recombination, outer hair cells (OHC): 69%
  cochlear cells survived as compared to +36 GFP-Cre treatment: 66%
[3]; [7]
  Cre-mediated recombination, inner hair cells (IHC): 94%
  Cre-mediated recombination, outer hair cells (OHC): 91%
  cochlear cells survived as compared to +36 GFP-Cre treatment: 92%
BSR.LNL.tdTomato cells [5]
  recombination signal above that of +36 GFP-Cre: 10.4 fold
  recombination levels higher than that of +36 GFP-Cre alone: 3.8 fold
BSR.LNL.tdTomato cells [1]
  cells expressing tdTomato (recombined cells): 40%

## citropin 1.3-+36 GFP-Cre: fusion protein of citropin 1.3, +36 GFP and Cre recombinase, SEQ ID NO: 78
BSR.LNL.tdTomato cells [2]
  viability: 84%
  viable cells: 66%
BSR.LNL.tdTomato cells [5]
  recombination signal above that of +36 GFP-Cre: did not induce any enhanced Cre delivery
  recombination levels higher than that of +36 GFP-Cre alone: 3.0 fold
